Data set [1] in a line: Toxicity in mouse assessed as induction of organ abnormalities at 100 to 200 mg/kg, po QD for 7 days by histological analysis. Conditions: in vivo, 168 h, dose 100-200 mg/kg, time 7 day. It counts as organism-based.
Data set [2] can be described thus: Toxicity in mouse assessed as effect on CBC parameters by measuring lymphocytes counts at 100 mg/kg, po QD for 7 days by histological analysis (reference value: 4060 +/- 1266 ABS/uL). The class given is organism-based. Conditions: in vivo, 168 h, time 7 day.
Data set [3] in a line: Toxicity in mouse at 100 to 400 mg/kg, po. Particulars: in vivo, dose 100-400 mg/kg. The class given is organism-based.
The next data set deals with HepG2. Kind of data set: Toxicity in human HepG2 cells. It counts as cell-based.
Data set [4] in a line: Toxicity in mouse assessed as effect on CBC parameters by measuring white blood cell counts at 200 mg/kg, po QD for 7 days by histological analysis (reference value: […] +/- […] 10^3/uL). It counts as organism-based. Conditions: in vivo, 168 h, time 7 day.
Data set [5] can be described thus: Toxicity in human CRL-8155 cells. The class given is cell-based.
A short description of data set [6]: Toxicity in mouse assessed as effect on CBC parameters by measuring white blood cell counts at 100 mg/kg, po QD for 7 days by histological analysis (reference value: […] +/- […] 10^3/uL). It counts as organism-based. Particulars: in vivo, 168 h, time 7 day.
Data set [7] is described as follows: Toxicity in mouse at 100 to 200 mg/kg, po QD for 7 days. It counts as organism-based. Conditions: in vivo, 168 h, dose 100-200 mg/kg, time 7 day.
Data set [8] in a line: Toxicity in mouse assessed as induction of distress at 100 to 400 mg/kg, po. The class given is organism-based. Particulars: in vivo, dose 100-400 mg/kg.
Data set [9] is described as follows: Toxicity in mouse assessed as effect on CBC parameters by measuring lymphocytes counts at 200 mg/kg, po QD for 7 days by histological analysis (reference value: 4060 +/- 1266 ABS/uL). The class given is organism-based. Particulars: in vivo, 168 h, time 7 day.

The source of these data is ChEMBL document CHEMBL4673226, “Development of 5-Aminopyrazole-4-carboxamide-based Bumped-Kinase Inhibitors for Cryptosporidiosis Therapy” (J Med Chem, 2019).

Turning to `CC(C)(CO)Cn1nc(-c2ccc3cc(OC4CC4)ccc3c2)c(C(N)=O)c1N`, the Activity result in data set [1] is “Non-Toxic”; in data set [2] it was 1194 abs/uL; in data set [3], “Non-Toxic”; with HepG2 it was “Non-Toxic”; in data set [4], 1.5 10^3 /uL; in data set [5], “Non-Toxic”. The Activity in [6] is 1.5 10^3 /uL; in data set [7], “Non-Toxic”; in data set [8], “Non-Toxic”; in data set [9], 1301 abs/uL.
